Assay results: the SangsterLogP compilation

| Compound | logP |
| --- | --- |
| N#CC1CC1 | 0.29 |
| Nc1nc2cc(Cl)ccc2[nH]1 | 1.88 |
| CS(=O)(=O)N1C(=O)c2ccc(N)cc2C1=O | 0.8 |
| CCCSP(=O)(OCC)SCCC | 3.59 |
| Cn1c(N)nc2cc(Cl)c(Cl)cc21 | 2.98 |
| COC(=O)c1ccccc1N | 1.88 |
| NC(=O)OCCc1cccc2c1C(=O)C(Br)=C(N1CC1)C2=O | 0.68 |
| C[C@H](NC(=O)N(CCCl)N=O)C(=O)O | 0.78 |
| COc1cccc2ccccc12 | 3.63 |
| CCN(C(=O)SCc1ccccc1)C(C)C(C)C (stereo not drawn) | 4.6 |
| Cc1cscn1 | 0.97 |
| CCCOP(OCCC)OCCC | 2.26 |
| O=C(OCCCc1cnc[nH]1)c1ccccc1 | 2.64 |
| COC(=O)C(C)(C)C | 1.83 |
| CN(C)N=Nc1ccc(CCCC(=O)O)cc1 | 2.62 |
| COC(=O)CC(C)C | 1.82 |
| FN(F)C(c1ccccc1)(c1ccccc1)c1ccccc1 | 3.73 |
| NC(=O)Cc1cccs1 | 0.33 |
| CC(C)(C)NCC(O)COCCCc1ccccc1 (stereo not drawn) | 2.58 |
| Oc1ccc(Sc2ccc(O)cc2)cc1 | 3.34 |
| ClCC#CCCl | 2.01 |
| O=C(NCCO)C(F)(F)Cn1cnc([N+](=O)[O-])n1 | -0.77 |
| COC(=O)C1=CCCN(C)C1 | 0.35 |
| [O-][n+]1ccccc1 | -1.2 |
| CN(C)C(CSS(=O)(=O)c1ccccc1)CSS(=O)(=O)c1ccccc1 | 3.36 |
| CCC1OC(=O)C(C)C(OC2CC(C)(OC)C(O)C(C)O2)C(C)C(OC2OCC(O)C(N=[N+]=[N-])C2O)C(C)(O)CC(C)C(=O)CC(O)C1(C)O (stereo not drawn) | 1.76 |

| Compound | logP |
| --- | --- |
| c1ccc2c(c1)Cc1ccccc1S2 | 3.86 |
| COC(=O)c1cc(Cl)ccc1N | 3.3 |
| O=[N+]([O-])c1ccc(/C=C/c2ncc[nH]2)o1 | 1.32 |
| NC(=S)N1CCCCC1 | 0.73 |
| Nc1ccc([C@@H](O)[C@@H](CO)NC(=O)C(Cl)Cl)cc1 | -0.29 |
| CN(C)N=Nc1cccc2oc3ccccc3c12 | 4.55 |
| COc1cc(C)c2c(c1OC)C1CCC(NCc3ccccc3)C(=O)CC1C(NC(C)=O)CC2 (stereo not drawn) | 3.58 |
| Cc1cccc(CC(=O)O)c1Nc1c(Cl)cccc1Cl | 4.93 |
| COc1ccccc1C(C)=O | 1.82 |
| O=C(NCCN1CCC(O)(c2ccc(Cl)cc2)CC1)c1ccc(F)cc1 | 2.85 |
| Nc1c([N+](=O)[O-])cccc1[N+](=O)[O-] | 1.79 |
| CCS(=O)(=O)c1c([N+](=O)[O-])ncn1C | -0.37 |
| Nc1cc(Cl)c(Cl)cc1N | 2 |
| Cc1ccc2c(c1)nc(N)n2C | 1.47 |
| O=C1CC(OC(=O)c2ccccc2)N1 (stereo not drawn) | 1.37 |
| C=C(C)CN(CC)c1c([N+](=O)[O-])cc(C(F)(F)F)cc1[N+](=O)[O-] | 5.11 |
| O=[N+]([O-])c1ccccc1CO | 1.24 |
| Nc1cc(C(F)(F)F)ccc1Cl | 3.06 |
| Cn1cccc1C=NNC(=O)Nc1ccccc1 | 2.71 |
| CN(C)C1=CC(=O)c2ccccc2C1=O | 1.9 |
| NC(=O)OCCC1=C(N2CC2)C(=O)C(Br)=C(N2CC2)C1=O | 0.68 |
| CC(C)Nc1nc(N)nc(SC(F)F)n1 | 2.68 |
| Nc1ccc2c(c1)C(=O)N(O)C2=O | 0.16 |
| O=S(Cc1ccccc1)Cc1ccccc1 | 1.99 |
| CC(C)c1ccc(C(O)C(CO)NC(=O)C(Cl)Cl)cc1 (stereo not drawn) | 2.24 |
| CCC(C)N(C(=O)SCc1ccccc1)C(C)CC (stereo not drawn) | 4.4 |

| Compound | logP |
| --- | --- |
| CCS(=O)(=O)CC | -0.59 |
| CC(=O)OC(C)(C)C | 1.76 |
| O/N=C/c1ccccc1 | 1.85 |
| NC(=O)Nc1cccc2cccnc12 | 1.62 |
| CC1NC(=O)C(CC(=O)N[C@@H](Cc2c[nH]c3ccccc23)C(=O)N[C@@H](Cc2ccccc2)C(=O)N(C)Cc2ccccc2)NC1=O (stereo partly drawn) | 3.18 |
| O=C(O)c1ccc2c(c1)OCCOCCOCCOCCOCCO2 | -0.28 |
| CC(=O)OC(C)c1ccccc1 (stereo not drawn) | 2.3 |
| CCCn1cnc2c(NC(C)=O)ncnc21 | 0.09 |
| O=C1C=C(Br)C(=O)c2ccccc21 | 2.44 |
| Fc1cc(F)c(F)c(F)c1F | 2.53 |
| CCOC(=O)C(F)F | 0.87 |
| NC(=O)CCNC(=O)C(F)(F)Cn1cncc1[N+](=O)[O-] | -0.95 |
| CC1(C)CNC(=NN=C(C=Cc2ccc(C(F)(F)F)cc2)C=Cc2ccc(C(F)(F)F)cc2)NC1 | 2.31 |
| CCOC(=O)N(C)C | 0.89 |
| CC(=O)COc1ccccc1 | 1.04 |
| CC(Cl)[N+](=O)[O-] (stereo not drawn) | 1.1 |
| Cc1c(COC(=O)[C@@H]2[C@H](/C=C(\Cl)C(F)(F)F)C2(C)C)cccc1-c1ccccc1 | 6 |
| O=c1n[n+]([O-])ccn1[C@@H]1O[C@H](CO)[C@@H](O)[C@H]1O | -2.43 |
| O=[N+]([O-])c1cc2[nH]c(C(F)(F)F)nc2cc1Cl | 3.21 |
| CSc1nc2nc(Cl)ccc2[nH]1 | 2.39 |
| O/N=C/c1ccncc1 | 0.77 |
| NC(=O)C(Cl)Cl | 0.19 |
| NC1CC1 | 0.07 |
| Nc1cc([N+](=O)[O-])cc([N+](=O)[O-])c1 | 1.89 |
| C1=COCCC1 | 0.69 |
| NC(=O)CCOc1ccccc1 | 0.8 |
